Series [1] deals with T1, insulin aspart (Asp^B28 human insulin) (Homo sapiens, UniProt P01308, P52D).
Another series deals with human insulin (Homo sapiens, UniProt P01308).
Series [2] deals with T1, insulin aspart (Asp^B28 human insulin). The conditions noted are these: pH 7.4.
Experimental: Compositions comprising the buffer components covered by the present invention were prepared according to the above-mentioned and a reference composition containing 7 mM sodium phosphate as buffer component was prepared in parallel.
For series [3] the target is unchanged. As to the kind of experiment: Chemical stability of the polypeptide, degradation products formed during storage. The conditions noted are these: insulin aspart compositions, 1-100 mM buffer; 3 months storage at 5° C. or 37° C.; data not shown.
[4] abbreviates: human insulin, 6.7 mM buffer, n=12.
Setting [5] is: insulin aspart 600 nmol/mL, 1-100 mM buffer, 37° C., shake 1200 rpm, n=12.

Each structure is given as a SMILES string. Read-outs that look alike come from different tables or passages of the source.

T1 sequence (P01308 25-54 P52D): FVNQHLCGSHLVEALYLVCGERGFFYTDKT
T1 sequence (P01308 90-110): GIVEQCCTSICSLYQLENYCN
human insulin, sequence (P01308 25-54 limits assumed): as the sequence (P01308 25-54 P52D) above, with D28P counted along it

For `CC[N+](CC)(CC)CC.[Cl-]` [T.E.A. chloride, tetraethylammonium chloride], the “impact on chemical stability of the polypeptide (amount of degradation products formed)” value (“impact on chemical stability” below) in series [1] is “No significant impact”. Besides, at human insulin (setting [4]), the “polypeptide stability (physical stability, ThT lag-time) compared to compositions comprising phosphate buffer” value is reported as “increased”. In addition, in series [2] (setting [5]), the “polypeptide stability (physical stability, ThT lag-time) compared to compositions comprising phosphate buffer (7 mM)” value is on record as “increased”.
Regarding `Cl.NCC(N)=O` [glycinamid hydrochloride], the “impact on chemical stability” value in series [3] is given as “No significant impact”. The “polypeptide stability (physical stability, ThT lag-time) compared to compositions comprising phosphate buffer” value at human insulin is recorded as “increased”. In addition, the “polypeptide stability (physical stability, ThT lag-time) compared to compositions comprising phosphate buffer (7 mM)” value in series [2] is “increased”.
`CC(N)(CO)CO` [AMPD, 2-amino-2-methyl-1,3-propanediol]: in series [3], the “impact on chemical stability” value was “No significant impact”. The “polypeptide stability (physical stability, ThT lag-time) compared to compositions comprising phosphate buffer” value at human insulin (setting [4]) is “increased”. Further, the “polypeptide stability (physical stability, ThT lag-time) compared to compositions comprising phosphate buffer (7 mM)” value in series [2] (setting [5]) was “increased”.
For the molecule `O=C(O)c1ccc(C(=O)O)c(C(=O)O)c1` [trimellitic acid, 1,2,4-benzenetricarboxylic acid], the “impact on chemical stability” value in series [3] is “No significant impact”. In addition, on human insulin (setting [4]), the “polypeptide stability (physical stability, ThT lag-time) compared to compositions comprising phosphate buffer” value is “increased”. For the same molecule, the “polypeptide stability (physical stability, ThT lag-time) compared to compositions comprising phosphate buffer (7 mM)” value in series [2] (setting [5]) is “increased”.
In the case of `CCC(CC)(C(=O)O)C(=O)O` [diethylmalonic acid, diethylpropanedioic acid], in series [3], the “impact on chemical stability” value is recorded as “No significant impact”. For the same molecule, the “polypeptide stability (physical stability, ThT lag-time) compared to compositions comprising phosphate buffer” value at human insulin (setting [4]) is “increased”. In addition, the “polypeptide stability (physical stability, ThT lag-time) compared to compositions comprising phosphate buffer (7 mM)” value in series [2] (setting [5]) is “increased”.

These data come from patent US20090060861A1, “Stabilized Polypeptide Formulations” (NOVO Nordisk A/S, priority 2005, published 2009).
